Like-named read-outs stand apart in the source and are kept apart here.
Test system: cultured human mast cells (CHMC)
Experiment: CHMC low cell density IgE activation: tryptase assay
Assay type: cell-based
Conditions: low cell density CHMC, IgE activation
Summary of the method: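 Low-density CHMC, 1000-1500 cells/well in MT; 1 hr 37 °C; anti-IgE challenge 30 min 37 °C; supernatant tryptase via fluorogenic substrate, 30 min RT.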

[1] = Homo sapiens, Mast cell, tryptase, 3 pt, read-out: LD Tryptase, CHMC, IgE, 3 pt
[2] = Homo sapiens, Mast cell, tryptase, 8 pt, read-out: LD Tryptase, CHMC, IgE, 8 pt
[3] = Homo sapiens, Mast cell, tryptase release, 8 pt, read-out: LD Tryptase, CHMC, IgE, 8 pt
[4] = tryptase release, 8 pt, read-out: LD Tryptase, CHMC, IgE, 8 pt

Structure (SMILES) | IC50 [1] [µM] | IC50 [3] [µM] | further results
Cc1cc2c(cnn2C)cc1Nc1ncc(F)c(Nc2ccc(Cl)c(Cl)c2)n1 [Compound 757, N4-(3,4-Dichlorophenyl)-N2-(1,6-dimethylindazol-5-yl)-5-fluoro-2,4-pyrimidinediamine] | < 10 |  | 
Cc1cc2c(cnn2C)cc1Nc1ncc(F)c(Nc2ccc3c(c2)NC(=O)C(C)(C)O3)n1 [Compound 758, N2-(1,6-Dimethylindazol-5-yl)-N4-(2,2-dimethyl-3-oxo-4H-benz[1,4]oxazin-6-yl)-5-fluoro-2,4-pyrimidinediamine] | < 10 |  | IC50 [2]: < 10 µM
COc1cc(Nc2nc(Nc3cc4cnn(C)c4cc3C)ncc2F)ccc1F [Compound 759, N2-(1,6-Dimethylindazol-5-yl)-5-fluoro-N4-(4-fluoro-3-methoxyphenyl)-2,4-pyrimidinediamine] | < 10 |  | 
CCn1cc2ccc(Nc3ncc(F)c(Nc4ccc(Cl)c(Cl)c4)n3)cc2n1 [Compound 760, N4-(3,4-Dichlorophenyl)-N2-(2-ethylindazol-6-yl)-5-fluoro-2,4-pyrimidinediamine] | < 10 |  | IC50 [2]: < 10 µM
CCCn1cc2cc(Nc3ncc(F)c(Nc4ccc(Cl)c(Cl)c4)n3)ccc2n1 [Compound 762, N4-(3,4-Dichlorophenyl)-5-fluoro-N2-(2-n-propylindazol-5-yl)-2,4-pyrimidinediamine] | < 10 |  | IC50 [2]: < 10 µM
CCCn1cc2cc(Nc3ncc(F)c(Nc4ccc5c(c4)NC(=O)C(C)(C)O5)n3)ccc2n1 [Compound 763, N4-(2,2-Dimethyl-3-oxo-4H-benz[1,4]oxazin-6-yl)-5-fluoro-N2-(2-n-propylindazol-5-yl)-2,4-pyrimidinediamine] | < 10 |  | IC50 [2]: < 10 µM
CCCn1cc2ccc(Nc3ncc(F)c(Nc4ccc5c(c4)NC(=O)C(C)(C)O5)n3)cc2n1 [Compound 764, N4-(2,2-Dimethyl-3-oxo-4H-benz[1,4]oxazin-6-yl)-5-fluoro-N2-(2-n-propylindazol-6-yl)-2,4-pyrimidinediamine] | < 10 |  | IC50 [2]: < 10 µM
CCCn1cc2ccc(Nc3ncc(F)c(Nc4ccc(Cl)c(Cl)c4)n3)cc2n1 [Compound 765, N4-(3,4-Dichlorophenyl)-5-fluoro-N2-(2-n-propylindazol-6-yl)-2,4-pyrimidinediamine] | < 10 |  | IC50 [2]: < 10 µM
COc1ccc(Nc2nc(Nc3ccc4c(cnn4C(C)C)c3)ncc2F)cc1Cl [Compound 779, N4-(3-Chloro-4-methoxyphenyl)-5-fluoro-N2-[1-(1-methylethyl)indazol-5-yl]-2,4-pyrimidinediamine] |  | < 10 | 
CC(C)n1ncc2cc(Nc3ncc(F)c(Nc4ccc(Cl)c(Cl)c4)n3)ccc21 [Compound 780, N4-(3,4-Dichlorophenyl)-5-fluoro-N2-[1-(1-methylethyl)indazol-5-yl]-2,4-pyrimidinediamine] |  | < 10 | 
CC(C)n1ncc2cc(Nc3ncc(F)c(Nc4ccc5c(c4)NC(=O)C(C)(C)O5)n3)ccc21 [Compound 781, N4-(2,2-Dimethyl-3-oxo-4H-benz[1,4]oxazin-6-yl)-5-fluoro-N2-[1-(1-methylethyl)indazol-5-yl]-2,4-pyrimidinediamine] |  | < 10 | 
COc1cc(Nc2nc(Nc3ccc4c(cnn4C(C)C)c3)ncc2F)ccc1F [Compound 782, 5-Fluoro-N4-(4-fluoro-3-methoxyphenyl)-N2-[1-(1-methylethyl)indazol-5-yl]-2,4-pyrimidinediamine] |  | < 10 | 
COc1ccc(Nc2nc(Nc3ccc4cnn(C(C)C)c4c3)ncc2F)cc1Cl [Compound 783, N4-(3-Chloro-4-methoxyphenyl)-5-fluoro-N2-[1-(1-methylethyl)indazol-6-yl]-2,4-pyrimidinediamine] |  | < 10 | 
CC(C)n1ncc2ccc(Nc3ncc(F)c(Nc4ccc(Cl)c(Cl)c4)n3)cc21 [Compound 784, N4-(3,4-Dichlorophenyl)-5-fluoro-N2-[1-(1-methylethyl)indazol-6-yl]-2,4-pyrimidinediamine] |  | < 10 | 
CC(C)n1ncc2ccc(Nc3ncc(F)c(Nc4ccc5c(c4)NC(=O)C(C)(C)O5)n3)cc21 [Compound 785, N4-(2,2-Dimethyl-3-oxo-4H-benz[1,4]oxazin-6-yl)-5-fluoro-N2-[1-(1-methylethyl)indazol-6-yl]-2,4-pyrimidinediamine] |  | < 10 | 
CC(C)n1ncc2ccc(Nc3ncc(F)c(Nc4ccc5c(c4)NC(=O)[C@H](C)O5)n3)cc21 [Compound 786, (S)-N4-[2-Methyl-3-oxo-2H,4H-benz[1,4]oxazin-6-yl]-5-fluoro-N2-[1-(1-methylethyl)indazol-6-yl]-2,4-pyrimidinediamine] |  | < 10 | 
Cn1nc(N)c2cc(Nc3ncc(F)c(Nc4ccc(Cl)c(Cl)c4)n3)ccc21 [Compound 805, N2-(3-Amino-1-methylindazol-5-yl)-N4-(3,4-dichlorophenyl)-5-fluoro-2,4-pyrimidinediamine] |  | < 10 | 
Cn1nc(N)c2cc(Nc3ncc(F)c(Nc4ccc5c(c4)NC(=O)C(C)(C)O5)n3)ccc21 [Compound 806, N2-(3-Amino-1-methylindazol-5-yl)-N4-(2,2-dimethyl-3-oxo-4H-benz[1,4]oxazin-6-yl)-5-fluoro-2,4-pyrimidinediamine] |  | < 10 | 
Cc1nn(C)c2cc(Nc3ncc(F)c(Nc4ccc5c(n4)NC(=O)C(C)(C)O5)n3)ccc12 [Compound 812, N2-(1,3-Dimethylindazol-6-yl)-N4-(2,2-dimethyl-3-oxo-4H-5-pyrid[1,4]oxazin-6-yl)-5-fluoro-2,4-pyrimidinediamine] |  |  | IC50 [4]: < 10 µM
Cc1n[nH]c2cc(Nc3ncc(F)c(Nc4ccc5c(n4)NC(=O)C(C)(C)O5)n3)ccc12 [Compound 813, N4-(2,2-Dimethyl-3-oxo-4H-5-pyrid[1,4]oxazin-6-yl)-5-fluoro-N2-(3-methyl-1H-indazol-6-yl)-2,4-pyrimidinediamine] |  |  | IC50 [4]: < 10 µM
COCCCn1ncc2cc(Nc3ncc(F)c(Nc4ccc5c(n4)NC(=O)C(C)(C)O5)n3)ccc21 [Compound 814, N4-(2,2-Dimethyl-3-oxo-4H-5-pyrid[1,4]oxazin-6-yl)-5-fluoro-N2-[1-(3-methoxypropyl)indazol-5-yl]-2,4-pyrimidinediamine] |  |  | IC50 [4]: < 10 µM
COc1ccc(Nc2nc(Nc3ccc4c(cnn4CCCN4C(=O)c5ccccc5C4=O)c3)ncc2F)cc1Cl [Compound 815, N4-(3-Chloro-4-methoxyphenyl)-5-fluoro-N2-[1-[3-(N-phthalimidopropyl)]indazol-5-yl]-2,4-pyrimidinediamine] |  |  | IC50 [4]: < 10 µM
O=C1c2ccccc2C(=O)N1CCCn1ncc2cc(Nc3ncc(F)c(Nc4ccc(Cl)c(Cl)c4)n3)ccc21 [Compound 816, N4-(3,4-Dichlorophenyl)-5-fluoro-N2-[1-[3-(N-phthalimidopropyl)]indazol-5-yl]-2,4-pyrimidinediamine] |  |  | IC50 [4]: > 10 µM
CC1(C)Oc2ccc(Nc3nc(Nc4ccc5c(cnn5CCCN5C(=O)c6ccccc6C5=O)c4)ncc3F)cc2NC1=O [Compound 817, N4-(2,2-Dimethyl-3-oxo-4H-benz[1,4]oxazin-6-yl)-5-fluoro-N2-[1-[3-(N-phthalimidopropyl)]indazol-5-yl]-2,4-pyrimidinediamine] |  |  | IC50 [4]: < 10 µM
C[C@@H]1Oc2ccc(Nc3nc(Nc4ccc5c(cnn5CCCN5C(=O)c6ccccc6C5=O)c4)ncc3F)cc2NC1=O [Compound 818, (S)-5-Fluoro-N4-(2-methyl-3-oxo-2H,4H-benz[1,4]oxazin-6-yl)-N2-[1-[3-(N-phthalimidopropyl)]indazol-5-yl]-2,4-pyrimidinediamine] |  |  | IC50 [4]: < 10 µM

From patent US20220073536A1 (Rigel Pharmaceuticals, Inc., priority 2003, published 2022)
